# Measurements: US20050069907A1, “Methods for using double-mutant RNA polymerases with reduced discrimination between non-canonical and canonical nucleoside triphosphates” (priority 2002, published 2005)
# Columns and labels:
# Type in all cases: biochemical
# poly(dI)·poly(dC) = assay: Relative activity on poly(dI)·poly(dC)
# Procedure: (§1) Transcription reactions: Transcription reactions were carried out in 40 mM Tris-Cl pH 8.0, 15 mM MgCl2, and 5 mM DTT or 20 mM Manganese Citrate pH 8.0, 5 mM DTT at 37° C. Template, polymerase, and NTP concentrations were as indicated in the legends to the figures and tables. Relative activity determinations were made by taking 4 μl aliquots of reactions at 5, 10, and 20 minute time points and spotting on to DE81 filter paper. Unincorporated nucleotides were separated from incorporated nucleotides by washing the filter paper with 0.5 M KH2PO4 pH 7.0 and retained radioactive nucleotide was quantitated with a Molecular Dynamics phosphorimager. To evaluate rNTP/dNTP selectivity, reactions were run with 4 rNTPs and pT75 as template and α-P^32 rNTPs or α-P^32 dNTPs were used to label the transcripts. The relative rate of incorporation of an rNTP vs. its cognate dNTP was determined from the relative percentages of labeled rNTP vs. dNTP incorporated into DE81 retainable RNA at 5, 10, and 20 minute time points. Apparent miscoding frequencies were determined similarly, though in this instance the template was a single-stranded homopolymer and the reaction contained the complementary unlabeled rNTP, and complementary α-P^32 rNTP or one of the 3 non-complementary α-P^32 rNTPs. The relative percentages of labeled complementary vs. non-complementary rNTPs incorporated at 5, 10 and 20 minute time points gave an apparent miscoding rate. The rNTP/dNTP selectivity assay was used to test the following T7 RNAP mutants for effects on substrate discrimination: D537S, D537E, S539A, R5S1S, D552S, R627S, K631S, L637A, Y639S, Y639F, Y639A, G640A, F644A, G645A, Q649S, […], H811S, H811A, D812A, D812E, D812S, D812N, D879E+ΔF882+ΔA883, D879E+A881T+ΔA883, D879E+F884+A885, D879E+F882Y, D879E+ΔA883, D879E+F882W, D879E.
# DNA and RNA synthesis on homopolymeric templates: T7 RNAP will synthesize poly(rG) RNAs on poly(dC) templates (Bonner, et al., 1994; Ikeda and Richardson 1987). The activity of the W.T. and mutant polymerases were measured on poly(dI)-poly(dC) with rGTP, dGTP, dGTP+rGMP (see, Table III).
# Numbers give mean and range from 3 experiments. Templates were at 0.2 mg/ml, polymerases at 10^-8 M. Labeling NTPs were α-P^32 rGTP, α-P^32 dGTP, α-P^32 rATP, α-P^32 dATP, as appropriate. rNTPs or rNMPs at 0.5 mM; dNTPs at 1 mM.
# poly(dC) = assay: Apparent miscoding on homopolymeric template poly(dC); settings: for Relative rate of incorporation GTP/ATP / Relative rate of incorporation GTP/CTP / Relative rate of incorporation GTP/UTP / Relative rate of incorporation of rGTP vs non-complementary rNTPs: poly(dC); for Relative rate of incorporation GTP/ATP / Relative rate of incorporation GTP/CTP / Relative rate of incorporation GTP/UTP: Mg^2+ buffer
# Procedure: as §1
# An increase in miscoding would be reflected in an increase in the rate of incorporation of the non-complementary NTP into RNA.
# Numbers are averages from 2 experiments and reflect the ratio of the percentages of labeled rNTPs incorporated into RNA in reactions in which unlabeled complementary rNTPs were in great excess (0.5 mM) to labeled complementary or non-complementary rNTPs. Templates were at 0.1 mg/ml. Polymerases were at 10^−8 M in Mg^2+ buffer and 10^−7 M in Mn^2+ buffer.
# *The upper number refers to results obtained in Mg^2+ buffer, the lower number to results in Mn^2+ buffer. n.d.: G640A, Y639A, Y639S were poorly active in Mn^2+ buffer, or on poly(dT) under all conditions.
# [1] = 2′-group discrimination of M635 mutants; settings: wild-type or Y639F T7 RNAP background
# Procedure: Other mutations: It is conceivable that, in the absence of a bound rNTP, a hydrogen bond forms between Y639 and some other active site side chain. The possibility of an interaction between M635 and Y639 was tested since M635 and Y639 are close and M635 approaches the ribose in our models of NTP in T7 RNAP (Huang, et al., submitted for publication). This position is methionine in the T7 RNAP class of RNAPs (McAllister, W.T., 1993), but is either tyrosine or phenylalanine in the homologous DNAPs, and in the DNAP mutants at this site (i.e., positions homologous to position 762 in E. coli DNAP I) that affect dNTP/ddNTP discrimination (Tabor. S., and Richardson, C. C., European patent application, 1994). […] Additional studies will reveal whether these M635 mutations have other effects, such as effects on discrimination at the 3′-position of the sugar, or effects on discrimination with respect to NTPs with other substituents, such as fluorine at the 2′ position of the sugar. Also, studies on similar double mutations at the homologous sites in the homologous class I DNAPs will reveal the effects of such double mutations on discrimination at the 2′- and 3′-positions of the sugar; specifically, these studies will reveal whether class I DNAPs having a phenylalanine at the position homologous to amino acid position 766 in E. coli DNAP I have reduced discrimination for rNTPs if the amino acid is methionine or tyrosine at the position homologous to amino acid position 762 in E. coli DNAP I.
# pT75 = assay: Activity with NTPs containing different 2′-substituents; design: unit not given here
# Procedure: Activity was determined with pT75 as template but with one of the rNTPs replaced with a dNTP or a 2′-modified NTP. The labeling NTP was UTP (in reactions with 2′-modified CTPs or ATPs) or CTP (in reactions with 2′-modified UTPs). Y639F and Y639M represent enzymes with substitutions of the wild-type (W.T.) tyrosine at position 639 by phenyalanine (F) or methionine (M), respectively.
# [2] = rGTP, mean and range from 3 experiments
Substance,Relative activity on poly(dI)·poly(dC) (poly(dI)·poly(dC); dGTP),Relative activity on poly(dI)·poly(dC) (poly(dI)·poly(dC); dGTP + rGMP),Relative activity on poly(dI)·poly(dC) (poly(dI)·poly(dC); [2]),"Activity in Mn^2+ buffer, or on poly(dT) under all conditions (poly(dC))",Relative rate of incorporation GTP/ATP (poly(dC)),Relative rate of incorporation GTP/CTP (poly(dC)),Relative rate of incorporation GTP/UTP (poly(dC)),2′-group discrimination with respect to dNTPs and rNTPs [1],also measured
G640A: T7 RNAP mutant adjacent to Y639 that does not affect substrate discrimination [reference compound],<5,<5,240 (200-270),poorly active,388,508,>1320,–,–
M635A: T7 RNAP M635 mutant,–,–,–,–,–,–,–,did not affect 2′-group discrimination,–
M635F: T7 RNAP M635 mutant,–,–,–,–,–,–,–,did not affect 2′-group discrimination,–
M635Y: T7 RNAP M635 mutant,–,–,–,–,–,–,–,did not affect 2′-group discrimination,–
Y639A: poorly active non-conservative tyrosine 639 mutation of T7 RNAP,5.3 (4.8-5.5),25 (17-30),145 (142-151),poorly active,>184,>184,>184,–,Relative rate of incorporation of rGTP vs non-complementary rNTPs (poly(dC)): 184 fold
Y639M: T7 RNAP with tyrosine at position 639 substituted by methionine,–,–,–,–,–,–,–,–,Activity (pT75; 2′-F-ATP replacing ATP): 9.7 ± .20; Activity (pT75; 2′-F-CTP replacing CTP): 47 ± .70; Activity (pT75; 2′-F-UTP replacing UTP): 23 ± .72; Activity (pT75; 2′-NH2-ATP replacing ATP): .92 ± .035; Activity (pT75; 2′-NH2-CTP replacing CTP): 21 ± .38; Activity (pT75; 2′-NH2-UTP replacing UTP): 3.6 ± .19; Activity (pT75; 2′-dATP replacing ATP): 3.2 ± .11; Activity (pT75; 2′-dCTP replacing CTP): 32 ± 1.1; Activity (pT75; 2′-dUTP replacing UTP): 11 ± .46; Activity (pT75; ATP): 51 ± 1.3; Activity (pT75; CTP): 54 ± 3.9; Activity (pT75; UTP): 50 ± 1.2
Y639S: poorly active non-conservative tyrosine 639 mutation of T7 RNAP,.6,4.4,48 (47-50),poorly active,>50,>50,>50,–,Relative rate of incorporation of rGTP vs non-complementary rNTPs (poly(dC)): 50 fold
